These results are taken from PubChem BioAssay (NCI).

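Values below derive from 48-hour exposures of cells grown in 96-well plates, with endpoints linearly interpolated between the two concentrations bracketing the appropriate inhibition level. The concentration for 50% growth inhibition is given as GI50. Definition used: TGI = concentration required for complete inhibition of growth.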

Test systems include 786-0 renal; TK-10 renal; DU-145 prostate; UACC-62 melanoma; SNB-19 CNS; SF-268 CNS; MALME-3M melanoma; NCI-H23 lung; OVCAR-4 ovarian; T-47D breast.
Test in all cases: inhibition of tumour cell growth, NCI panel, 48 h

Take `Oc1ccc(Oc2cnc3cc(Cl)ccc3n2)cc1`: the GI50 was 31 µM in the assay on 786-0 renal; > 100 µM in the assay with TK-10 renal; 42.4 µM in the assay with DU-145 prostate; 40.9 µM with UACC-62 melanoma; 91.6 µM in the assay on SNB-19 CNS; 14.8 µM in the assay on SF-268 CNS. For the same molecule, the GI50 is 34.7 µM in the assay with MALME-3M melanoma, 52.8 µM with NCI-H23 lung, 28.2 µM in the assay on OVCAR-4 ovarian and 32.8 µM in the assay on T-47D breast. For the same molecule, the TGI in the assay with 786-0 renal, in the assay on TK-10 renal, in the assay on DU-145 prostate, with UACC-62 melanoma, in the assay on SNB-19 CNS and in the assay on SF-268 CNS was > 100 µM each time. The TGI in the assay on MALME-3M melanoma, in the assay with NCI-H23 lung, in the assay with OVCAR-4 ovarian and in the assay on T-47D breast was > 100 µM throughout.

Regarding `O=C(Cn1c(C(=O)c2ccc(Cl)cc2)nc(-c2ccccc2)c1-c1ccccc1)c1ccc(Cl)cc1`, the GI50 with 786-0 renal, in the assay with TK-10 renal, with DU-145 prostate, in the assay on UACC-62 melanoma, with SNB-19 CNS and in the assay on SF-268 CNS was > 100 µM throughout. The GI50 in the assay on MALME-3M melanoma, in the assay with NCI-H23 lung, in the assay on OVCAR-4 ovarian and in the assay on T-47D breast was > 100 µM each time. The TGI in the assay on 786-0 renal, in the assay with TK-10 renal, in the assay on DU-145 prostate, in the assay on UACC-62 melanoma, with SNB-19 CNS and with SF-268 CNS was > 100 µM in each case. The TGI in the assay on MALME-3M melanoma, with NCI-H23 lung, with OVCAR-4 ovarian and in the assay with T-47D breast was > 100 µM each time.

In the case of `CN(C)CC1CCCCCC(Br)C1=O` (stereo not given), the TGI in the assay with 786-0 renal was 8.62 µM; in the assay on TK-10 renal, 17.7 µM; with DU-145 prostate, 25 µM; in the assay on UACC-62 melanoma, 44 µM; in the assay on SNB-19 CNS, > 100 µM; in the assay with SF-268 CNS it was > 66.1 µM. For the same molecule, the TGI in the assay on MALME-3M melanoma was 17.6 µM; with NCI-H23 lung, 29.6 µM; in the assay with OVCAR-4 ovarian it was 33.6 µM; in the assay on T-47D breast it was > 54.6 µM.

For the molecule `OCCn1cc(-c2cnc3nnn(Cc4ccc5ncccc5c4)c3n2)cn1`, the GI50 in the assay with 786-0 renal, in the assay with TK-10 renal, in the assay on DU-145 prostate, with UACC-62 melanoma, with SNB-19 CNS and in the assay on SF-268 CNS was > 100 µM in each case. Besides, the GI50 with MALME-3M melanoma, with NCI-H23 lung, in the assay with OVCAR-4 ovarian and in the assay on T-47D breast was > 100 µM each time. Further, the TGI in the assay on 786-0 renal, with TK-10 renal, in the assay with DU-145 prostate, with UACC-62 melanoma, with SNB-19 CNS and in the assay on SF-268 CNS was > 100 µM throughout. For the same molecule, the TGI in the assay with MALME-3M melanoma, in the assay with NCI-H23 lung, with OVCAR-4 ovarian and in the assay with T-47D breast was > 100 µM each time.

Turning to `O=c1c2c(=NCCN3CCCC3)cc3c(=O)n(CCCN4CCOCC4)c(=O)c4ccc(c(O)n1CCCN1CCOCC1)c2c4-3`, the GI50 is 0.145 µM in the assay on 786-0 renal; 0.195 µM in the assay on TK-10 renal; 0.088 µM in the assay on DU-145 prostate; 0.35 µM in the assay on UACC-62 melanoma; 0.168 µM in the assay with SNB-19 CNS; 0.165 µM in the assay on SF-268 CNS. In addition, the GI50 is 0.346 µM in the assay on MALME-3M melanoma, 0.118 µM in the assay with NCI-H23 lung, 0.13 µM with OVCAR-4 ovarian and 0.273 µM in the assay with T-47D breast. For the same molecule, the TGI with 786-0 renal stood at 1.1 µM; in the assay with TK-10 renal, 1.62 µM; with DU-145 prostate, 1.67 µM; in the assay on UACC-62 melanoma it was 0.966 µM; in the assay with SNB-19 CNS, 2.09 µM; in the assay on SF-268 CNS it was 0.751 µM. Besides, the TGI is 1.22 µM in the assay on MALME-3M melanoma, 0.627 µM in the assay on NCI-H23 lung, 0.735 µM in the assay with OVCAR-4 ovarian and 2.2 µM in the assay with T-47D breast.

On to `O=C1/C(=C/c2ccc(Cl)cc2)CCC1CN1CCOCC1` (stereo not given), for which the TGI amounted to 6.2 µM in the assay with 786-0 renal; 18.3 µM in the assay with TK-10 renal; 16.1 µM in the assay on DU-145 prostate; 15.8 µM in the assay with UACC-62 melanoma; 30.8 µM with SNB-19 CNS; 45.9 µM with SF-268 CNS. Moreover, the TGI in the assay with MALME-3M melanoma was 20.3 µM; in the assay on NCI-H23 lung it was 20.9 µM; in the assay with OVCAR-4 ovarian, 34.1 µM; with T-47D breast, 6.25 µM.

Consider `CC(C)=CC(=O)N[C@@H]1CC2CCC3C(CC[C@@]4(C)C3CC[C@@H]4C(C)N(C)C)[C@@]2(C)C[C@@H]1O` (stereo not given in full), for which the GI50 with 786-0 renal is 4.31 µM; with TK-10 renal, 14.1 µM; in the assay with DU-145 prostate, 10.7 µM; with UACC-62 melanoma, 2.24 µM; in the assay on SNB-19 CNS it was 17.8 µM; in the assay with SF-268 CNS, 2.71 µM. The GI50 was 2.91 µM with MALME-3M melanoma, 5.06 µM in the assay on NCI-H23 lung, 4.32 µM in the assay with OVCAR-4 ovarian and 1.94 µM in the assay with T-47D breast. The TGI with 786-0 renal was 14.2 µM; in the assay with TK-10 renal it was 32.3 µM; in the assay on DU-145 prostate, > 100 µM; in the assay on UACC-62 melanoma it was 5.28 µM; in the assay with SNB-19 CNS, 60.4 µM; in the assay with SF-268 CNS, 12.2 µM. The TGI in the assay with MALME-3M melanoma was 9.41 µM; with NCI-H23 lung, 39.1 µM; in the assay with OVCAR-4 ovarian, > 62 µM; in the assay on T-47D breast it was 31.2 µM.

Consider `CCOc1cc2c(=O)oc3c(OC)ccc4ccc(c1OC)c2c43`, for which the TGI with 786-0 renal, with TK-10 renal, in the assay with DU-145 prostate, in the assay on UACC-62 melanoma, in the assay on SNB-19 CNS and in the assay with SF-268 CNS was > 100 µM throughout. Moreover, the TGI in the assay with MALME-3M melanoma, in the assay with NCI-H23 lung, in the assay with OVCAR-4 ovarian and with T-47D breast was > 100 µM in each case.
